Experimental data: US12310944B2 (priority 2019, dated 2025)
Read-outs that look alike come from different tables or passages of the source.

Assays:
PC-12 neural cell line = assay: Toxicity test in PC-12 nerve cell (MTT); type: cell-based; conditions: PC-12 cells; for SR(%) cell survival rate, 20 μM: 20 μM compound for 24 h; for SR(%) cell survival rate, 50 μM: 50 μM compound for 24 h
Protocol: Toxicity Test in PC-12 Nerve Cell:
Drugs and reagents: Test compounds, DMEM medium (01-050-1A) purchased from Biological Industries, FBS fetal bovine serum (04-001-1A) purchased from Biological Industries, MTT thiazolyl blue reagent (KGT525500) purchased from KeyGEN BioTECH.
(§1) Instrument: THERMO Varioskan Flash full-wavelength multifunctional microplate reader.
About 3×10^3 PC-12 cells were evenly mixed in 0.1 mL of DMEM medium containing 10% FBS, and plated on a 96-well bottom plate, and incubated overnight at 37° C. in an environment containing 5% CO2. The 20 μM and 50 μM compounds diluted in 0.1 mL of DMEM medium were treated on the cells for 24 hours. Then MTT reagent was added to the well plate, and the plate was incubated at 37° C. for 2 to 4 hours. The color reaction was measured at 492 nm using a spectrophotometer (Thermo, multiskan FC).

hBuChE = hBuChE (Homo sapiens, UniProt P06276); assay: Cholinesterase inhibitory activity (DTNB/BTC), hBuChE; type: biochemical; conditions: mean ± SEM
[1] = biological target: T1, eqBuChE (BuChE, E.C.3.1.1.8, selected from horse serum) (Equus caballus, UniProt P81908); assay: Cholinesterase inhibitory activity (DTNB/BTC), eqBuChE; type: biochemical
T1 construct: BuChE (E.C.3.1.1.8, selected from horse serum); purchased Sigma; host or cells: horse serum
T1 sequence (P81908 whole entry): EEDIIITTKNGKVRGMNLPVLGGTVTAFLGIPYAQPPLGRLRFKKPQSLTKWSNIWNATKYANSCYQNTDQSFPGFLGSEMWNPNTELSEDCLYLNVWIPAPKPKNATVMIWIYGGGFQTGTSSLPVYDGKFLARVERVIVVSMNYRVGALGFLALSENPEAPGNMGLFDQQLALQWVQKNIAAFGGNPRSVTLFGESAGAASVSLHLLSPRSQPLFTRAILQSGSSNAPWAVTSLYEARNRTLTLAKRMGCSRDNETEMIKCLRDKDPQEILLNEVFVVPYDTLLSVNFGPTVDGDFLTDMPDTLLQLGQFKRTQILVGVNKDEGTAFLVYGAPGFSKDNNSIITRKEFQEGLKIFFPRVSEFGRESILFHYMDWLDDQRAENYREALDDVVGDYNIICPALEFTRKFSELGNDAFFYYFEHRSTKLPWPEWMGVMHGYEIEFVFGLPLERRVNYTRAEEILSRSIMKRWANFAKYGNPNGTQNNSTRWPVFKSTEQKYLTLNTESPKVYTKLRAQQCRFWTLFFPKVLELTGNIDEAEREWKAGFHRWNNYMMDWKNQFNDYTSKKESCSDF
Description: Determination of Cholinesterase Inhibitory Activity:
Drugs and reagents: Test compounds, AChE (E.C.3.1.1.7, Type VI-S, selected from electric eel), BuChE (E.C.3.1.1.8, selected from horse serum), 5,5′-dithiobis(2-nitrobenzoic acid) (DTNB), acetylthiocholine (ATC) iodide and butyrylthiocholine (BTC) iodide were all purchased from Sigma; the positive control tacrine hydrochloride (9-amino-1,2,3,4-tetrahydroacridine hydrochloride hydrate) was purchased from BioTrend.
as §1
(1) Formulation of buffer: 13.6 g of potassium dihydrogen phosphate was dissolved in 1 L of water, and pH was adjusted with potassium hydroxide to reach pH=8±0.1. The solution was stored at 4° C. for later use.
(2) Formulation of 0.01 M DTNB solution: 0.396 g of DTNB and 0.15 g of sodium bicarbonate were dissolved in 100 mL of water to prepare a 0.01 M DTNB solution, which was stored at −30° C. for later use.
(3) Formulation of 0.075 M ATC and BTC solutions: 0.217 g of ATC was dissolved in 10 mL of water to prepare a 0.075 M ATC solution, which was stored at −30° C. for later use; 0.237 g of BTC was dissolved in 10 mL of water to prepare a 0.075 M BTC solution, which was stored at −30° C. for later use.
(4) Formulation of AChE and BuChE solutions: 5,000 units of AChE were dissolved in 1 mL of 1% gel solution, and then diluted to 100 mL with water to prepare a AChE solution with a concentration of 5 units/mL, which was stored at −30° C. for later use; 5,000 units of BuChE were dissolved in 1 mL of 1% gel solution, and then diluted to 100 mL with water to prepare a BuChE solution with a concentration of 5 units/mL, which was stored at −30° C. for later use.
(5) Formulation of test substance solution: The test compound was dissolved in ethanol to obtain a solution with a concentration of 10^−3 M (ethanol would not affect the test results), and then diluted with water to prepare solutions with concentrations of […], 10^−5, 10^−6, 10^−7, 10^−8, 10^−9, and 10^−10 M, respectively.
Before the start of the experiment, all the solutions as used were warmed to room temperature, and the AChE and BuChE solutions were diluted 1-fold with water to prepare an enzyme solution with a concentration of 2.5 units/mL. The background UV absorbance was measured with a blank buffer (3 mL) as a subtraction value. Firstly, 100 μL of test compound solution, 100 μL of DTNB solution, and 100 μL of enzyme solution were added to 3 mL of buffer. After adding 20 μL of ATC or BTC solution to trigger the reaction, the time was recorded immediately and the test solution was mixted quickly and uniformly at the same time. After 2 minutes, the UV absorbance was measured at a wavelength of […]. The blank control group was measured with an equal volume of water instead of the test substance solution. All tests were performed three times in parallel. The UV absorption value of the blank control group was taken as 100%, the absorbance (OD value) of the test compound at each concentration was recorded, and GraphPad Prism™ (GraphPad Software, San Diego, CA, USA) software was used to analyze the results in a non-linear regression analysis model to calculate the corresponding IC50 values, as shown in Table 1.

[2] = read-out: IC50 (nM) ± SEM eqBuChE
[3] = eqBuChE, mean ± SEM, three parallel tests

Row | Structure (SMILES) | SR(%) cell survival rate, 20 μM (PC-12 neural cell line) | SR(%) cell survival rate, 50 μM (PC-12 neural cell line) | IC50 (hBuChE) | IC50 [1, 2] | IC50 [1, 3]
1 | CCN(CC)Cc1ccccc1CNC(=O)c1cccc(NC(=O)c2ccc(C#N)cc2)c1 [Compound 31, 3-(4-cyanobenzamido)-N-(2-((diethylamino)methyl)benzyl)benzamide] | 94.67% | 91.59% | 16.5 ± 15.1 nM | 15.8 ± 2.84 nM | –
2 | CCN(CC)Cc1ccccc1CNC(=O)c1cccc(NC(=O)c2ccc(C(F)(F)F)cc2)c1 [Compound 25] | 97.58% | 91.57% | 1.41 ± 0.01 nM | 0.38 ± 0.1 nM | –
3 | CCN(CC)Cc1ccccc1CNC(=O)c1cccc(NC(=O)c2cccc(F)c2)c1 [Compound 17, N-(2-((diethylamino)methyl)benzyl)-3-(3-fluorobenzamido)benzamide] | 98.40% | 89.75% | 25.2 ± 19.1 nM | – | 4.55 ± 0.74 nM
4 | CCN(CC)Cc1ccccc1CNC(=O)c1cccc(NC(=O)c2ccc(C(C)=O)cc2)c1 [Compound 30] | 91.86% | 72.56% | 24 ± 1.52 nM | – | 6.63 ± 0.66 nM
5 | CCN(CC)Cc1ccccc1CNC(=O)c1cccc(NC(=O)c2cccc(OC)c2)c1 [Compound 27] | 91.23% | 83.60% | 12.8 ± 6.01 nM | 4.91 ± 1.35 nM | –
6 | CCN(CC)Cc1ccccc1CNC(=O)c1cccc(NC(=O)c2ccc(C(C)C)cc2)c1 [Compound 24] | 97.02% | 86.21% | 2.08 ± 0.73 nM | 0.58 ± 0.67 nM | –
7 | CCN(CC)Cc1ccccc1CNC(=O)c1cccc(NC(=O)c2ccc(C(=O)OC)cc2)c1 [Compound 29, methyl 4-((3-((2-((diethylamino)methyl)benzyl)carbamoyl)phenyl)carbamoyl)benzoate] | 99.42% | 93.32% | 9.06 ± 0.74 nM | 2.48 ± 0.26 nM | –
8 | CCN(CC)Cc1ccccc1CNC(=O)c1cccc(NC(=O)c2ccc(C(=O)O)cc2)c1 [Compound 13, 4-((3-((2-((diethylamino)methyl)benzyl)carbamoyl)phenyl)carbamoyl)benzoic acid] | 91.46% | 75.25% | 3.4 ± 0.31 nM | 0.76 ± 0.09 nM | –
9 | CCCN(CCC)Cc1ccccc1CNC(=O)c1cccc(NC(=O)c2cccs2)c1 [Compound 35, N-(3-((2-((dipropylamino)methyl)benzyl)carbamoyl)phenyl)thiophene-2-carboxamide] | 92.58% | 84.86% | 0.89 ± 0.67 nM | – | 0.45 ± 0.04 nM
10 | CCN(CC)Cc1ccccc1CNC(=O)c1cccc(NC(=O)c2ccco2)c1 [Compound 6, N-(3-((2-((diethylamino)methyl)benzyl)carbamoyl)phenyl)furan-2-carboxamide] | 95.37% | 81.46% | 0.63 ± 0.13 nM | – | 0.79 ± 0.09 nM
11 | CCN(CC)Cc1ccccc1CNC(=O)c1cccc(NC(=O)c2ccc(F)c(F)c2)c1 [Compound 16] | 95.72% | 89.53% | 0.57 ± 0.1 nM | 0.3 ± 0.07 nM | –
12 | CCN(CC)Cc1ccccc1CNC(=O)c1cccc(NC(=O)c2ccccc2)c1 [Compound 11, 3-benzamido-N-(2-((diethylamino)methyl)benzyl)benzamide] | 96.30% | 83.4% | 0.99 ± 0.18 nM | 0.48 ± 0.07 nM | –
13 | CN(C)Cc1ccccc1CNC(=O)c1cccc(NC(=O)c2cccs2)c1 [Compound 34, N-(3-((2-((dimethylamino)methyl)benzyl)carbamoyl)phenyl)thiophene-2-carboxamide] | 96.10% | 94.5% | 0.75 ± 0.27 nM | – | 0.29 ± 0.05 nM
